According to patent publication US9845330B2, “6-nitro-2,3-dihydroimidazo[2,1-b]oxazoles and a process for the preparation thereof” (priority 2013, dated 2017):
Converted amounts (≈) assume the structure as drawn. Where two headings read alike, the source gives them in different places.

Columns and labels:
Type in all cases: cell-based
[1] = test system: M. tuberculosis H37Rv (ATCC 27294); test: MIC by broth dilution method, M. tuberculosis H37Rv; details: Mycobacterium tuberculosis
[2] = test system: macrophage J774 cells line; test: Cytotoxicity assay (MTT) in macrophage J774 cells; details: J774 cells, 24 hrs, MTT
Experimental: (§1) The study was carried out using macrophage J774 cells line (ATCC-USA). Cells were grown in Rosewell Park Memorial Institute Medium (RPMI) containing 10% fetal calf serum (FCS) and supplemented with 75 mg/liter penicillin, 100 mg/liter streptomycin, 110 mg/liter Sodium pyruvate, 2.38 gm/liter HEPES, 0.05 mM 2 β-mercaptoethanol, and 2 gm/liter NaHCO3, in a humidified atmosphere in 5% CO2 at 37° C., and were sub-cultured at 1:4 ratio once a week.
(§2) Cells were plated at a density of 3×10^4 cells/cm^2 and maintained in culture medium for 12 hours. Cells were seeded onto 96-well flat bottom plates and FCS was reduced to 5% for the experiment. Stock solutions of compounds IA1 to IIC10 were prepared fresh to avoid oxidation. Cells were incubated with the compounds (40 μg/ml) for 24 hrs.
(§3) After the completion of incubation, the medium was removed and cell viability was evaluated by assaying for the ability of functional mitochondria to catalyze the reduction of 3-(4,5-dimethylthiazol-2-yl)-2,5-diphenyltetrazolium bromide (MTT) to form formazan salt by mitochondrial dehydrogenases, and determined by Elisa reader at 450 nm (Multiskan Spectrum; Thermo Electron Corporation, USA). Percentage cytotoxicity was calculated with respect to the untreated cells.

[3] = Cytotoxicity assay (MTT) in macrophage J774 cells; details: mouse, J774 macrophage cells; also called safety index
Experimental: as §1, §2, §3

[4] = 504 h, broth dilution, 3 weeks, read-out: MIC M. tb H37Rv
[5] = read-out: MIC value, text summary: sensitive H37Rv as well as MDR and XDR strains of M. tuberculosis

Structure (SMILES): CCc1ccc(-c2cn(-c3ccc(OC[C@@]4(C)Cn5cc([N+](=O)[O-])nc5O4)cc3)nn2)cc1 [IA2, (R)-2-{4-[4-(4-ethylphenyl)-1H-1,2,3-triazol-1-yl]phenoxymethyl}-2,3-dihydro-2-methyl-6-nitroimidazo[2,1-b]oxazole]
- MIC [1, 4]: 2 µg/mL (≈ 4.48 µM)
- Cytotoxicity [2]: >40 µg/mL
- selectivity ratio at 24 h, 40 μg/ml [3]: > 10

Structure (SMILES): C[C@]1(COc2ccc(-n3cc(-c4ccc(F)cc4)nn3)cc2)Cn2cc([N+](=O)[O-])nc2O1 [IA3, (R)-2-{4-[4-(4-fluorophenyl)-1H-1,2,3-triazol-1-yl]phenoxymethyl}-2,3-dihydro-2-methyl-6-nitroimidazo[2,1-b]oxazole]
- MIC [1, 4]: 0.25 µg/mL (≈ 0.573 µM)
- MIC [1, 5]: < 1 µg/mL
- Cytotoxicity [2]: >40 µg/mL
- selectivity ratio at 24 h, 40 μg/ml [3]: > 10

Structure (SMILES): C[C@]1(COc2ccc(-n3cc(-c4ccc(OC(F)(F)F)cc4)nn3)cc2)Cn2cc([N+](=O)[O-])nc2O1 [IA5, (R)-2-{4-[4-(4-trifluoromethoxyphenyl)-1H-1,2,3-triazol-1-yl]phenoxymethyl}-2,3-dihydro-2-methyl-6-nitroimidazo[2,1-b]oxazole]
- MIC [1, 4]: 0.5 µg/mL (≈ 0.995 µM)
- MIC [1, 5]: < 1 µg/mL
- Cytotoxicity [2]: >40 µg/mL
- selectivity ratio at 24 h, 40 μg/ml [3]: > 10

Structure (SMILES): C[C@]1(COc2ccc(-n3cc(-c4ccccc4C(F)(F)F)nn3)cc2)Cn2cc([N+](=O)[O-])nc2O1 [IA6, (R)-2-{4-[4-(2-trifluoromethylphenyl)-1H-1,2,3-triazol-1-yl]phenoxymethyl}-2,3-dihydro-2-methyl-6-nitroimidazo[2,1-b]oxazole]
- MIC [1, 4]: 1 µg/mL (≈ 2.06 µM)
- Cytotoxicity [2]: >40 µg/mL
- selectivity ratio at 24 h, 40 μg/ml [3]: > 10

Structure (SMILES): COc1ccc(-c2cn(-c3ccc(OC[C@@]4(C)Cn5cc([N+](=O)[O-])nc5O4)cc3)nn2)cc1 [IA11, (R)-2-{4-[4-(4-methoxyphenyl)-1H-1,2,3-triazol-1-yl]phenoxymethyl}-2,3-dihydro-2-methyl-6-nitroimidazo[2,1-b]oxazole]
- MIC [1, 4]: 0.25 µg/mL (≈ 0.557 µM)
- MIC [1, 5]: < 1 µg/mL
- Cytotoxicity [2]: >40 µg/mL
- selectivity ratio at 24 h, 40 μg/ml [3]: > 10

Structure (SMILES): C[C@]1(COc2ccc(-n3cc(-c4cccc(OC(F)(F)F)c4)nn3)cc2)Cn2cc([N+](=O)[O-])nc2O1 [IA12, (R)-2-{4-[4-(3-trifluoromethoxyphenyl)-1H-1,2,3-triazol-1-yl]phenoxymethyl}-2,3-dihydro-2-methyl-6-nitroimidazo[2,1-b]oxazole]
- MIC [1, 4]: 0.5 µg/mL (≈ 0.995 µM)
- MIC [1, 5]: < 1 µg/mL
- Cytotoxicity [2]: >40 µg/mL
- selectivity ratio at 24 h, 40 μg/ml [3]: > 10

Structure (SMILES): C[C@]1(COc2ccc(-n3cc(-c4cccc(C(F)(F)F)c4)nn3)cc2)Cn2cc([N+](=O)[O-])nc2O1 [IA13, (R)-2-{4-[4-(3-trifluoromethylphenyl)-1H-1,2,3-triazol-1-yl]phenoxymethyl}-2,3-dihydro-2-methyl-6-nitroimidazo[2,1-b]oxazole]
- MIC [1, 4]: 2 µg/mL (≈ 4.11 µM)
- Cytotoxicity [2]: >40 µg/mL
- selectivity ratio at 24 h, 40 μg/ml [3]: > 10

Structure (SMILES): C[C@]1(COc2ccc(-n3cc(-c4ccccn4)nn3)cc2)Cn2cc([N+](=O)[O-])nc2O1 [IA14]
- MIC [1, 4]: 2 µg/mL (≈ 4.77 µM)
- Cytotoxicity [2]: >40 µg/mL
- selectivity ratio at 24 h, 40 μg/ml [3]: > 10

Structure (SMILES): CCCCCc1cn(-c2ccc(OC[C@@]3(C)Cn4cc([N+](=O)[O-])nc4O3)cc2)nn1 [IA15, (R)-2-{4-[4-pentyl-1H-1,2,3-triazol-1-yl]phenoxymethyl}-2,3-dihydro-2-methyl-6-nitroimidazo[2,1-b]oxazole]
- MIC [1, 4]: 32 µg/mL (≈ 77.6 µM)
- Cytotoxicity [2]: >40 µg/mL
- selectivity ratio at 24 h, 40 μg/ml [3]: > 10

Structure (SMILES): C[C@]1(COc2ccccc2-n2cc(-c3ccc(F)cc3F)nn2)Cn2cc([N+](=O)[O-])nc2O1 [IA24, (R)-2-{2-[4-(2,4-difluorophenyl)-1H-1,2,3-triazol-1-yl]phenoxymethyl}-2,3-dihydro-2-methyl-6-nitroimidazo[2,1-b]oxazole]
- MIC [1, 4]: 1 µg/mL (≈ 2.2 µM)
- Cytotoxicity [2]: >40 µg/mL
- selectivity ratio at 24 h, 40 μg/ml [3]: > 10

Structure (SMILES): C[C@]1(COc2ccc(-n3cc(COc4ccc(F)cc4)nn3)cc2)Cn2cc([N+](=O)[O-])nc2O1 [IA26]
- MIC [1, 4]: 0.5 µg/mL (≈ 1.07 µM)
- MIC [1, 5]: < 1 µg/mL
- Cytotoxicity [2]: >40 µg/mL
- selectivity ratio at 24 h, 40 μg/ml [3]: > 10

Structure (SMILES): C[C@]1(COc2ccc(-n3cc(COc4ccc(C(F)(F)F)cc4)nn3)cc2)Cn2cc([N+](=O)[O-])nc2O1 [IA27]
- MIC [1, 4]: 0.25 µg/mL (≈ 0.484 µM)
- MIC [1, 5]: < 1 µg/mL
- Cytotoxicity [2]: >40 µg/mL
- selectivity ratio at 24 h, 40 μg/ml [3]: > 10

Structure (SMILES): C[C@]1(COc2ccc(-n3cc(COc4ccccc4F)nn3)cc2)Cn2cc([N+](=O)[O-])nc2O1 [IA28]
- MIC [1, 4]: 0.12 µg/mL (≈ 0.257 µM)
- MIC [1, 5]: < 1 µg/mL
- Cytotoxicity [2]: >40 µg/mL
- selectivity ratio at 24 h, 40 μg/ml [3]: > 10

Structure (SMILES): Cc1ccc(OCc2cn(-c3ccc(OC[C@@]4(C)Cn5cc([N+](=O)[O-])nc5O4)cc3)nn2)cc1 [IA29]
- MIC [1, 4]: 32 µg/mL (≈ 69.2 µM)
- Cytotoxicity [2]: >40 µg/mL
- selectivity ratio at 24 h, 40 μg/ml [3]: > 10

Structure (SMILES): CC(C)c1ccc(OCc2cn(-c3ccc(OC[C@@]4(C)Cn5cc([N+](=O)[O-])nc5O4)cc3)nn2)cc1 [IA30]
- MIC [1, 4]: 32 µg/mL (≈ 65.2 µM)
- Cytotoxicity [2]: >40 µg/mL
- selectivity ratio at 24 h, 40 μg/ml [3]: > 10

Structure (SMILES): CCc1ccc(OCc2cn(-c3ccc(OC[C@@]4(C)Cn5cc([N+](=O)[O-])nc5O4)cc3)nn2)cc1 [IA31]
- MIC [1, 4]: 0.25 µg/mL (≈ 0.525 µM)
- MIC [1, 5]: < 1 µg/mL
- Cytotoxicity [2]: >40 µg/mL
- selectivity ratio at 24 h, 40 μg/ml [3]: > 10

Structure (SMILES): CCC(C)c1ccc(OCc2cn(-c3ccc(OC[C@@]4(C)Cn5cc([N+](=O)[O-])nc5O4)cc3)nn2)cc1 (stereo partly drawn) [IA32]
- MIC [1, 4]: 0.12 µg/mL (≈ 0.238 µM)
- MIC [1, 5]: < 1 µg/mL
- Cytotoxicity [2]: >40 µg/mL
- selectivity ratio at 24 h, 40 μg/ml [3]: > 10

Structure (SMILES): C[C@]1(COc2cccc(-n3cc(COc4ccc(F)cc4)nn3)c2)Cn2cc([N+](=O)[O-])nc2O1 [IA34]
- MIC [1, 4]: 0.12 µg/mL (≈ 0.257 µM)
- MIC [1, 5]: < 1 µg/mL
- Cytotoxicity [2]: >40 µg/mL
- selectivity ratio at 24 h, 40 μg/ml [3]: > 10

Structure (SMILES): C[C@]1(COc2ccccc2-n2cc(COc3ccc(OC(F)(F)F)cc3)nn2)Cn2cc([N+](=O)[O-])nc2O1 [IA39]
- MIC [1, 4]: 1 µg/mL (≈ 1.88 µM)
- Cytotoxicity [2]: >40 µg/mL
- selectivity ratio at 24 h, 40 μg/ml [3]: > 10

Structure (SMILES): C[C@]1(COc2ccccc2-n2cc(COc3ccc(F)cc3)nn2)Cn2cc([N+](=O)[O-])nc2O1 [IA40]
- MIC [1, 4]: 4 µg/mL (≈ 8.58 µM)
- Cytotoxicity [2]: >40 µg/mL
- selectivity ratio at 24 h, 40 μg/ml [3]: > 10

Structure (SMILES): C[C@]1(COc2ccccc2-n2cc(COc3ccc(C(F)(F)F)cc3)nn2)Cn2cc([N+](=O)[O-])nc2O1 [IA41]
- MIC [1, 4]: 2 µg/mL (≈ 3.87 µM)
- Cytotoxicity [2]: >40 µg/mL
- selectivity ratio at 24 h, 40 μg/ml [3]: > 10

Structure (SMILES): C[C@]1(COc2ccccc2-n2cc(COc3ccccc3F)nn2)Cn2cc([N+](=O)[O-])nc2O1 [IA42]
- MIC [1, 4]: 2 µg/mL (≈ 4.29 µM)
- Cytotoxicity [2]: >40 µg/mL
- selectivity ratio at 24 h, 40 μg/ml [3]: > 10

Structure (SMILES): C[C@]1(COc2ccc(-c3cc(-c4ccccc4)on3)cc2)Cn2cc([N+](=O)[O-])nc2O1 [IC1, (R)-2-{4-[5-phenylisoxazol-3-yl]phenoxymethyl}-2,3-dihydro-2-methyl-6-nitroimidazo[2,1-b]oxazole]
- MIC ([1]; 504 h, read-out: MIC M. tb H37Rv, broth dilution, 3 weeks): 0.06 µg/mL (≈ 0.143 µM)
- MIC [1, 5]: < 1 µg/mL
- Cytotoxicity [2]: >40 µg/mL
- selectivity ratio at 24 h, 40 μg/ml [3]: > 10

Structure (SMILES): CCc1ccc(-c2cc(-c3ccc(OC[C@@]4(C)Cn5cc([N+](=O)[O-])nc5O4)cc3)no2)cc1 [IC2, (R)-2-{4-[5-(4-ethylphenyl)isoxazol-3-yl]phenoxymethyl}-2,3-dihydro-2-methyl-6-nitroimidazo[2,1-b]oxazole]
- MIC [1, 4]: 2 µg/mL (≈ 4.48 µM)
- Cytotoxicity [2]: >40 µg/mL
- selectivity ratio at 24 h, 40 μg/ml [3]: > 10

Structure (SMILES): C[C@]1(COc2ccc(-c3cc(-c4ccc(F)cc4F)on3)cc2)Cn2cc([N+](=O)[O-])nc2O1 [IC3, (R)-2-{4-[5-(2,4-difluorophenyl)isoxazol-3-yl]phenoxymethyl}-2,3-dihydro-2-methyl-6-nitroimidazo[2,1-b]oxazole]
- MIC [1, 4]: 0.25 µg/mL (≈ 0.55 µM)
- MIC [1, 5]: < 1 µg/mL
- Cytotoxicity [2]: >40 µg/mL
- selectivity ratio at 24 h, 40 μg/ml [3]: > 10
